Measured values reported in patent US4921865A, “Aminoacylates of glycerol acetal” (Societe de Conseils de Recherches et d'Applications …, priority 1987, dated 1990).

What was measured:
[1] = test system: polymorphonuclear leukocytes (PMNs); assay: antagonism of polymorphonuclear leukocyte aggregation induced by PAF; format: cell-based, rat (Wistar); settings: rat PMNs, PAF 10^-8
Procedure: Polymorphonuclear leukocytes (PMNs) were obtained as described by A. W. Ford-Hutchinson et al. (Br - J. Pharmacol. 76, 367-371, 1982). Cell suspensions ([…]) were prepared from peritoneal exudates obtained after a 5 ml IP injection of sodium caseinate 12% (w/v) to male Wistar rats, 300 g body weight.
After centrifugation, cells were washed with Hanks and resuspended in MEM/Hepes 30 mM medium (PM=7.4) at a concentration of 10^7 cells/ml. Cytochalasin B (5 μg/ml) was added 10 minutes before trigering aggregation to amplify the PMNs aggregation. The light transmittance through the cell suspension (400 μl) was measured under a 900 R/mn magnetic stirring, with a dual beam aggregometer (Chronolog Corp. Coultronics.)
The control cuvet is the cell suspension diluted to 20% of the cell count with MEM and the difference represents 100% transmittance. Change in transmittance, which occurs when PAF is added, was continuously recorded.
Drugs solubilized in MEM/Hepes were added (4 μl) to PMNs suspension 2 minutes before PAF addition.

[2] = test system: PAF-induced [Ca^2+ ]i mobilization, washed rabbits platelets; assay: inhibition of intracytosolic free calcium mobilization induced by PAF in washed rabbit platelets; format: cell-based; settings: PAF 2×10^-9 M
Procedure: Blood was taken from the auricular artery of the rabbit on citric acid/sodium citrate/dextrose and anticoagulan and the washed platelets were prepared according to Ardlie et al., Brit. J. Pharmacology, 19, 7-17, 1970. They were incubated with acetylsalicylic salt (100 μM, 30 minutes) to avoid thromboxane induced aggregation. They were then loaded with the fluorescent calcium indicator dye quin 2 by incubation with quin 2 aceto-methylester (15 μM in DMSO, 20 minutes at room temperature) which penetrates the cell membrane and after hydrolysed is trapped in the platelet. Drugs were preincubated with platelets for 15 minutes simultaneously to CP/CPK mixture which destroys secreted ADP.
Fluorescent measurement was then performed (excitation λ=339 nm, emission λ=494 nm) after PAF addition to platelet suspension. The fluorescence intensity is proportional to the cytosolic free calcium level [Ca^2+ ]i which can be quantified as described by Tsien et al., J. Cell Biol., 94, 325-334, 1982.

[3] = test system: platelets (PAF induced platelet aggregation); assay: inhibition of PAF-induced platelet aggregation in platelet rich plasma; format: cell-based, New Zealand rabbits; settings: Oryctolagus cuniculus; rabbit platelet rich plasma, 2.5 nM PAF
Procedure: 1--INHIBITION OF THE PLATELETS AGGREGATION ON NEW ZEALAND RABBITS
The experimentation was conducted on platelets with plasma of New Zealand rabbits.
Blood samples were taken from auricular artery and placed in a citrate buffer (3.8 %; pH 7.4); blood was further centrifugated for 15 mn at 1200 RPM.
The tested sample was prepared in DMSO, then poured on platelets rich plasma for 1 mn, then a dose of 2.5 nM of PAF was added.
The determination is made on a Cronolog Coultronics apparatus which determines the transmission percentage corresponding to the maximum height of the peak before the desaggregation.
The percentage of variation of the inhibition with respect to the transmission percentage is calculated (control: pure DMSO).
This method was described in details in LABORATORY INVESTIGATIONS, Vol. 41, No. 3, p. 275, 1979, JEAN-PIERRE CAZENAVE, Dr. MED. , JACQUES BENVENISTE, Dr. MED., AND J. FRASER MUSTARD, M.D., "Aggregation of Rabbits Platelets by Platelet-Activating Factor Is Independent of the Release Reaction and the Arachidonate Pathway and Inhibited by Membrane-Active Drugs".
Five tests made on 5 different rabbits allowed us to calculate the IC50 of the various compounds using the linear regression test.

[4] = test system: PAF-induced thrombocytopenia; assay: PAF-induced thrombocytopenia in the guinea pig; format: in vivo; settings: for Percentage Variation (thrombocytopenia): vs control; for Percentage Decrease in leukocyte number: thrombocytopenia
Procedure: (§1) Male Guinea-pig (400-500 g) were anesthetized with urethane (1.5 g/kg: IP) prior to be tracheotomized and ventilated with a respiratory pump (UGO BASILE) (70-80 breath/minute, 1 ml air/100 g/breath) to abolish spontaneous respiration a pneumothorax was performed. The resistance to inflation was measured with a pressure transducer (UGO BASILE) against an initial pressure of 10 cm H2 O according to Konzett and Rossler. Animals were allocated into groups and were treated or not by the compounds of the invention (0.05, 0.1, 0.5, 1 and 5 mg/kg).The products were given IV 1 hour before challenge with PAF.
(§2) The animals were challenged with various doses of PAF ([…]) given intravenously, and the variations in the resistance to inflation were recorded.
(§3) Blood samples were collected prior to and 1,5 and 10 minutes following to PAF-challenge. Forty μl of blood were diluted in 10 ml isoton (Coultronics, France); erythrocytes were lysed with Zapoglobin (France) prior leukocytes were counted in a coulter counter. To determine platelet number, 40 μl of blood were diluted in 2 ml isoton and centrifuged at 100 runs per minute for 30 secondes, 100 μl of the supernatant were collected and further diluted in 10 ml isoton prior counting in a coulter counter.

PAF-induced leukopenia = PAF-induced leukopenia in the guinea pig; format: in vivo; settings: for Percentage Variation (leukopenia): vs control
Procedure: as §1, §2, §3

IC50 ([1]; Leukocyte): 1000 nM
IC50 [3]: 303 nM
Compound: CCCCCCCCCCCCCCCCCC1(C)OCC(COC(=O)CCCCC[n+]2cccc3ccccc32)O1 (stereo not drawn) [Example 10, 2-heptadecyl 2-methyl 4-[6'-(N-quinolinium)hexanoyloxymethyl) 1,3-dioxolanbromide]
inhibition of PMN aggregation (in words) [1]: dose-dependently inhibit
inhibition of PAF-induced [Ca^2+ ]i mobilization (in words) ([2]; 5×10^-7 M): totally inhibit
inhibition at 0.05 µM ([2]; Oryctolagus cuniculus, Platelet, 5×10^-8 M, read-out: inhibition of PAF effect on [Ca^2+ ]i): 75%
Percentage Variation (thrombocytopenia) ([4]; 0.1 mg/kg IV, 1 mn): -21.7%
Percentage Variation (thrombocytopenia) ([4]; 0.1 mg/kg IV, 5 mn): 0%
Percentage Variation (thrombocytopenia) ([4]; 0.1 mg/kg IV, 10 mn): -7.2%
Percentage Variation (thrombocytopenia) ([4]; 0.5 mg/kg IV, 1 mn): -59.9%
Percentage Variation (thrombocytopenia) ([4]; 0.5 mg/kg IV, 5 mn): -39.3%
Percentage Variation (thrombocytopenia) ([4]; 0.5 mg/kg IV, 10 mn): -33.8%
Percentage Variation (thrombocytopenia) ([4]; 1 mg/kg IV, 1 mn): -58.3%
Percentage Variation (thrombocytopenia) ([4]; 1 mg/kg IV, 5 mn): -55.0%
Percentage Variation (thrombocytopenia) ([4]; 1 mg/kg IV, 10 mn): -60.0%
inhibition of PAF-induced thrombocytopenia (in words) ([4]; pyridinium compound 0.5, 1 and 5 mg/kg IV, quinolinium compound 0.5 and 1 mg/kg IV): inhibit
Percentage Decrease in leukocyte number ([4]; 0.1 mg/kg IV, 1 mn): 51.1 +/- 12.1%
Percentage Decrease in leukocyte number ([4]; 0.1 mg/kg IV, 5 mn): 49.1 +/- 8.8%
Percentage Decrease in leukocyte number ([4]; 0.1 mg/kg IV, 10 mn): 45.0 +/- 9.7%
Percentage Decrease in leukocyte number ([4]; 0.5 mg/kg IV, 1 mn): 26.2 +/- 6.3%
Percentage Decrease in leukocyte number ([4]; 0.5 mg/kg IV, 5 mn): 29.8 +/- 1.7%
Percentage Decrease in leukocyte number ([4]; 0.5 mg/kg IV, 10 mn): 32.1 +/- 5.8%
Percentage Decrease in leukocyte number ([4]; 1 mg/kg IV, 1 mn): 19.3 +/- 1.4%
Percentage Decrease in leukocyte number ([4]; 1 mg/kg IV, 5 mn): 22.1 +/- 2.5%
Percentage Decrease in leukocyte number ([4]; 1 mg/kg IV, 10 mn): 19.4 +/- 3.6%
Percentage Decrease of leukocyte number (PAF-induced leukopenia; 0.1 mg/kg IV, 1 mn): 38.8 +/- 6.3%
Percentage Variation (leukopenia) (PAF-induced leukopenia; 0.1 mg/kg IV, 1 mn): +6.3%
Percentage Decrease of leukocyte number (PAF-induced leukopenia; 0.1 mg/kg IV, 5 mn): 38.9 +/- 5.7%
Percentage Variation (leukopenia) (PAF-induced leukopenia; 0.1 mg/kg IV, 5 mn): +35.5%
Percentage Decrease of leukocyte number (PAF-induced leukopenia; 0.1 mg/kg IV, 10 mn): 41.2 +/- 6.5%
Percentage Variation (leukopenia) (PAF-induced leukopenia; 0.1 mg/kg IV, 10 mn): +53.2%
Percentage Decrease of leukocyte number (PAF-induced leukopenia; 0.5 mg/kg IV, 1 mn): 17.0 +/- 12.9%
Percentage Variation (leukopenia) (PAF-induced leukopenia; 0.5 mg/kg IV, 1 mn): -58.9%
Percentage Decrease of leukocyte number (PAF-induced leukopenia; 0.5 mg/kg IV, 5 mn): 9.0 +/- 11.8%
Percentage Variation (leukopenia) (PAF-induced leukopenia; 0.5 mg/kg IV, 5 mn): -68.6%
Percentage Decrease of leukocyte number (PAF-induced leukopenia; 0.5 mg/kg IV, 10 mn): -7.6 +/- 17.5%
Percentage Variation (leukopenia) (PAF-induced leukopenia; 0.5 mg/kg IV, 10 mn): +128.3%
Percentage Decrease of leukocyte number (PAF-induced leukopenia; 1 mg/kg IV, 1 mn): 24.1 +/- 6.8%
Percentage Variation (leukopenia) (PAF-induced leukopenia; 1 mg/kg IV, 1 mn): -41.0%
Percentage Decrease of leukocyte number (PAF-induced leukopenia; 1 mg/kg IV, 5 mn): 9.3 +/- 9.4%
Percentage Variation (leukopenia) (PAF-induced leukopenia; 1 mg/kg IV, 5 mn): -67.6%
Percentage Decrease of leukocyte number (PAF-induced leukopenia; 1 mg/kg IV, 10 mn): 8.9 +/- 13.2%
Percentage Variation (leukopenia) (PAF-induced leukopenia; 1 mg/kg IV, 10 mn): -66.9%
